Measured values from patent US4381301A, “Substituted tricyclic thieno compounds, their synthesis, their use, their compositions and their medicaments” (BYK Gulden Lomberg Chemische Fabrik GmbH, priority 1980, dated 1983).

Columns and labels:
Gastric secretion = test: Inhibition of gastric secretion in the Shay rat; format: in vivo; details: in rats, 4 hours after administration of the antiulcerogenic ED50
Procedure: ^(+) % inhibition = inhibition of the gastric secretion (in %) 4 hour
after administration of the antiulcerogenic ED50
(§1) Rats (female, 180 to 200 g, 4 animals per cage on a high grid) which had been fasted for 24 hours were subjected to ulcer provocation by pylorus ligature (under diethyl ether anaesthesia) and oral administration of 100 mg/10 ml/kg of acetylsalicylic acid. The substances to be tested are administered orally (10 ml/kg) 1 hour before the pylorus ligature. The wound is closed by means of Michel clamps. 4 hours thereafter, the animals are killed under ether anaesthesia by atlas dislocation, and the stomach is removed. The stomach is opened longitudinally and fixed to a cork tile after the amount of gastric juice secreted (volume) has been determined; the number and size (=diameter) of ulcers present are determined with a stereomicroscope with 10-fold magnification. The product of the degree of severity (according to the following rating scale) and the number of ulcers serves as the individual ulcer index.

[1] = Antiulcerogenic (protective) action on the stomach, so-called Shay rat (pylorus ligature + acetylsalicylic acid), ulcer index; format: in vivo; details: rat, in vivo; LD50 i.v. mice / ED50 p.o. rats; read-out: TQ LD50/ED50 (therapeutic quotient)
Procedure: (§2) ED50 = dose which reduces the ulcer index by 50% in the treated grou
(§3) compared with the control group
(§4) The antiulcerogenic action was tested in accordance with the method using the so-called Shay rat:
as §1, with “index. […]” for “index.”
(§5) ______________________________________
(§6) The reduction in the average ulcer index of each treated group compared with that of the control group (=100%) serves as a measure of the antiulcerogenic effect. The ED50 designates the dose which reduces the average ulcer index by 50%.

[2] = tested on: stomach (Shay rat, gastric ulcers); test: as above; format: in vivo; details: for ED50: Rattus norvegicus, po, peroral administration to rats, 1 hour before pylorus ligature, dose which reduces the ulcer index by 50% compared with control; for dose/action curve (antiulcerogenic action): compound 1 even at 300 mg/kg
Procedure: as §2, §3, §4
as §1, with “index. […]” for “index.”
as §5, §6

[3] = Determination of acute toxicity (LD50) in mice; details: mouse, in vivo; intravenous administration to mice; 7 days observation
Procedure: LD50 = dose at which 50% of the animals
The toxicity investigations are carried out on female NMRI mice (body weight: 22 to 26 g). The animals (5 animals per dose) receive feed and water ad libitum. Various doses of the substances are administered intravenously (injection time: 1 minute). The observation period is 7 days. The LD50 (the dose at which 50% of the animals die) is determined by means of linear regression.

Row | SMILES | Gastric secretion % inhibition (Gastric secretion) [%] | selectivity ratio [1] | ED50 [2] [mg/kg] | dose/action curve (antiulcerogenic action) ([2]; oral, rats) | inhibition effects (antiulcerogenic action) ([2]; 10 mg/kg, oral, rats) | LD50 at 168 h [3] [mg/kg]
1 | CC1(C)[C@@H](OC(=O)CCC(=O)O)CC[C@]2(C)[C@H]3C(=O)C=C4[C@@H]5C[C@@](C)(C(=O)O)CC[C@]5(C)CC[C@@]4(C)[C@]3(C)CC[C@@H]12 [compound 1, carbenoxolone, reference compound] | 7 | 4.1 | ~70 | very severely flattened so that no substantial increase in the ulcerogenic action can be achieved even at 300 mg/kg | – | –
2 | CN1CCN(CC(=O)N2c3ccccc3NC(=O)c3cscc32)CC1 [compound 2, 9,10-dihydro-4-[(4-methylpiperazin-1-yl)acetyl]-4H-thieno[3,4-b][1,5]benzodiazepin-10-one] | 35 | 76 | 2.5 | strictly dependent on the dose | up to 95% | 190
